According to ChEMBL document CHEMBL3414448, “Advances in the discovery of novel antimicrobials targeting the assembly of bacterial cell division protein FtsZ” (Eur J Med Chem, 2015):
Converted amounts (≈) assume the structure as drawn.

Tests used:
[1] = target: T1, Cell division protein FtsZ (Escherichia coli K-12, UniProt P0A9A6); assay: Binding affinity to Escherichia coli FtsZ by fluorescence anisotrophy
T1 sequence (P0A9A6 whole entry): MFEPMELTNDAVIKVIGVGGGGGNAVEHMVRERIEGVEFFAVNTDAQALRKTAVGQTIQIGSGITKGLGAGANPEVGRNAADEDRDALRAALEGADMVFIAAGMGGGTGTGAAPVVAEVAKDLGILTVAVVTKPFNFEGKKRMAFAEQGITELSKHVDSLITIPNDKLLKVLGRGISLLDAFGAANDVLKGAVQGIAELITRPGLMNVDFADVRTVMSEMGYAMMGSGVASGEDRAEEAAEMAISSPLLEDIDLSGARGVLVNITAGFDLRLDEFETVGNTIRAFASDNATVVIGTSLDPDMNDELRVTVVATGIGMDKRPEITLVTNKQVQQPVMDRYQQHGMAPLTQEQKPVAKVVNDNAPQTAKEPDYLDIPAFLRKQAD

Escherichia coli = assay: Antimicrobial activity against Escherichia coli; assay type: functional
Staphylococcus aureus [2] = assay: Antimicrobial activity against Staphylococcus aureus; assay type: functional
[3] = Inhibition of FtsZ (unknown origin) assessed as reduction in enzyme GTPase activity
[4] = tested on: Mycobacterium tuberculosis; assay: Antimicrobial activity against Mycobacterium tuberculosis; assay type: functional
[5] = target: T2, Cell division protein FtsZ (Mycobacterium tuberculosis, UniProt P9WN95); assay: Binding affinity to Mycobacterium tuberculosis FtsZ
T2 sequence (P9WN95 whole entry): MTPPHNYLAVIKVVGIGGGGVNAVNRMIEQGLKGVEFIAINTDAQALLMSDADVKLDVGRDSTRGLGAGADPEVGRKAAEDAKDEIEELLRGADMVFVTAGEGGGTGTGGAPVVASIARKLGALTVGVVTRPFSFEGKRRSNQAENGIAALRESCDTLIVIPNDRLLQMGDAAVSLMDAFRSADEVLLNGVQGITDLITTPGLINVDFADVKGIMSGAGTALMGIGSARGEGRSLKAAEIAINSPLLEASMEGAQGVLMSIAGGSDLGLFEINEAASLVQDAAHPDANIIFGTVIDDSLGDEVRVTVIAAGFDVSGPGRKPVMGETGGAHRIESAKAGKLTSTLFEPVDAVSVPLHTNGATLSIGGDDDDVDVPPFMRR

Bacillus subtilis [6] = assay: Antimicrobial activity against Bacillus subtilis 168; assay type: functional
Bacillus subtilis [7] = assay: Antimicrobial activity against Bacillus subtilis; assay type: functional
Pseudomonas fluorescens = assay: Antimicrobial activity against Pseudomonas fluorescens; assay type: functional
[8] = target: T1, Cell division protein FtsZ; assay: Inhibition of Escherichia coli FtsZ GTPase activity
Staphylococcus [9] = assay: Antimicrobial activity against Staphylococcus; assay type: functional
Staphylococcus [10] = assay: Antimicrobial activity against Staphylococcus relative to PC190723; assay type: functional
[11] = target: T1, Cell division protein FtsZ; assay: Inhibition of Escherichia coli FtsZ polymerization
Enterococcus faecalis = assay: Antimicrobial activity against Enterococcus faecalis; assay type: functional
Enterococcus faecium = assay: Antimicrobial activity against Enterococcus faecium; assay type: functional
Staphylococcus aureus [12] = assay: Antimicrobial activity against Staphylococcus aureus UAMS1; assay type: functional
Staphylococcus aureus [13] = assay: Antimicrobial activity against community acquired methicillin-resistant Staphylococcus aureus USA300-LAC; assay type: functional
[14] = Half life in staphylococcal growth media
[15] = Half life in 100% filtered mouse serum; assay type: ADME

N=C(N)c1ccc(-c2cc3ccc(C(=N)N)cc3[nH]2)cc1 [DAPI]
Kd [1]: 16.6 µM

CCC(CC)c1cc([C@H]2CN3CC[C@H]2C[C@@H]3CNCc2ccco2)nc(-c2ccncc2)n1
MIC (Escherichia coli): 72 µg/mL (≈ 162 µM) | MIC (Staphylococcus aureus [2]): 12 µg/mL (≈ 26.9 µM) | IC50 [3]: 55.7 µM

CC(C)c1c(O)ccc2c1CC[C@H]1C(C)(C)CCC[C@]21C [TOTAROL]
MIC (Escherichia coli): > 400 µg/mL | MIC (Staphylococcus aureus [2]): 1.5 µg/mL (≈ 5.24 µM) | MIC [4]: 16 µg/mL (≈ 55.9 µM) | Kd [5]: 11 µM | IC50 [3]: 40.8 µM | MIC (Bacillus subtilis [6]): 0.6 µg/mL (≈ 2.09 µM)

COc1c(OC(C)=O)ccc(/C=N/c2c(C(C)C)cccc2C(C)C)c1[N+](=O)[O-]
MIC (Bacillus subtilis [7]): 6.25 µg/mL (≈ 15.7 µM) | MIC (Escherichia coli): 6.25 µg/mL (≈ 15.7 µM) | MIC (Staphylococcus aureus [2]): 6.25 µg/mL (≈ 15.7 µM) | MIC (Pseudomonas fluorescens): 6.25 µg/mL (≈ 15.7 µM)

O=C1C[C@@H](c2ccccc2)Oc2c(Cc3cc(Cc4ccccc4O)ccc3O)c(O)c(Cc3cc(Cc4ccccc4O)ccc3O)c(O)c21
IC50 [8]: 8.3 µM | MIC (Bacillus subtilis [7]): 1.77 µg/mL (≈ 2.6 µM) | MIC (Staphylococcus aureus [2]): 1.16 µg/mL (≈ 1.7 µM)

NC(=O)c1c(F)ccc(O[C@H](CO)c2nc(-c3ccc(C(F)(F)F)cc3)c(Br)o2)c1F
MIC (Staphylococcus [9]): 0.12 µg/mL (≈ 0.237 µM) | Ratio (Staphylococcus [10]): 4

COC(=O)CC1Cc2cc3cc(OC)c(-c4c(OC)cc5cc6c(c(O)c5c4O)C(=O)OC(CC(=O)OC)C6)c(O)c3c(O)c2C(=O)O1 (stereo not given) [VIRIDITOXIN]
IC50 [8]: 10.6 µM | IC50 [11]: 12.4 µM | MIC (Staphylococcus aureus [2]): 4 µg/mL (≈ 6.04 µM) | MIC (Enterococcus faecalis): 2 µg/mL (≈ 3.02 µM) | MIC (Enterococcus faecium): 2 µg/mL (≈ 3.02 µM)

CCC(CC)c1cc([C@H]2CN3CC[C@H]2C[C@@H]3CNCc2ccc(CO)o2)nc(-c2ccncc2)n1
MIC (Escherichia coli): 36 µg/mL (≈ 75.7 µM) | MIC (Staphylococcus aureus [2]): 24 µg/mL (≈ 50.5 µM) | IC50 [3]: 73.2 µM

Oc1cc(O)cc(C/C(Cl)=C\Cc2cc(O)c(Cl)cc2O)c1
MIC (Staphylococcus aureus [12]): 1 µg/mL (≈ 2.93 µM) | MIC (Staphylococcus aureus [13]): 1 µg/mL (≈ 2.93 µM)

NC(=O)c1c(F)ccc(OCc2nc3cc(Cl)cnc3s2)c1F
MIC (Staphylococcus [9]): 0.5 µg/mL (≈ 1.41 µM)

CN1CCC(C(=O)NC(=O)c2c(F)ccc(OCc3nc4cc(Cl)cnc4s3)c2F)CC1
half-life [14]: 492 min | half-life [15]: 3.4 min

COc1cc(C/C=C(/Cl)Cc2cc(O)cc(O)c2)c(OC)cc1Cl
IC50 [8]: 37 µM | MIC (Staphylococcus aureus [12]): 1 µg/mL (≈ 2.71 µM) | MIC (Staphylococcus aureus [13]): 1 µg/mL (≈ 2.71 µM)
